≈ marks a conversion by molar mass, not a printed value.
How the values were obtained:
Assay in all cases: MIC serial dilution assay
Type in all cases: cell-based
Bacillus subtilis = Bacillus subtilis DSM10; overnight, 30 °C; reference oxytetracycline 1 mg/mL; read-out: Minimum Inhibitory Concentration (MIC)
Procedure: (§1) Compounds 1, 2, 4 and 5 were dissolved in MeOH (1 mg/mL) for the antimicrobial activity assay, while compound 3 was dissolved in MeOH: DMSO 9+1 (1 mg/mL). The solvents were also used as negative controls.
(§2) Minimum inhibitory concentrations (MIC) were determined in a serial dilution assay, as described previously; a detailed protocol can be found in the Supporting Information. The compounds (1 mg/mL) were diluted to a range of 66.7 to 0.52 µg/mL and incubated with the test organisms overnight. Inhibition of growth was visually evaluated the next day: the MIC is defined as the lowest concentration of the test compound where no growth of the test organism was observed. Various test organisms of fungal and bacterial origin were tested to cover a broad range of microorganisms. This selection is also being used as a standard test panel in our attempts to discover new anti-infectives, as it represents a broad spectrum of pathogens of clinical interest, as well as sensitive indicator strains (bacteria: Bacillus subtilis, Staphylococcus aureus, Micrococcus luteus, Chromobacterium violaceum, Escherichia coli and Pseudomonas aeruginosa; mycobacteria: Mycolicibacterium smegmatis and fungi: Candida albicans, Schizosaccharomyces pombe, Mucor hiemalis, Pichia anomala and Rhodotorula glutinis).
(§3) Protocol: Antimicrobial Activi ty Assay
(§4) The assay was conducted as a minimum inhi bitory concentration (MIC) assay in 96-well ro und-bottom mi crotiter pl ate s usi ng the p ar ameter s su mm ari zed i n T a bl e S 1 and as already described i n [S1].
(§5) Stocks of the test organi sms were generated by growing the organisms o ver ni ght i n 50 mL shaki ng fl asks fi ll ed wi th 25 mL of the growth medi um at 140 rpm (for media and temperatures see Table S1). If the organisms were well grown the ne xt day, which was checked by occurrence of an optical density (OD)>30 of the suspension (OD600 nm for bacteria, OD548 nm for fungi and M. smegma tis) , aliquots of these were stored i n 1.5 mL reaction tube s in a freezer at −80 °C for up to 12 mo nths . Upon use, aliquots were unth awed and the OD of the suspension measured and adjusted by diluting with the respective growth medi um. OD600 nm w as adj usted to 0.01 and OD548 nm to 0.1.
(§6) Subse que ntly, 150 µL o f the adjusted suspensions were added to all wells of a 96-wel l microtiter pl ate (one test organi sm per plate). In row A, additional 130 µL of suspensions plus 20 µL of the test compounds (1 mg/mL) and the controls (one compound/column) were added. MeOH as well as MeOH:DMSO 9+1 were used as negative controls, while different positive controls (refer ences) were used for the test organisms (see Tabl e S1). Then, starti ng from row A, 150 µ L of the suspension were transferred to the next row, the contents thoroughly mixed, and 150 µ L transferred to the following row.
(§7) The remaining 150 µ L after row H were discarded. […]
(§8) compounds, ranging from 66.7 µg/mL i n row A to 0.52 µg/mL i n row H.
(§9) The microtiter plates were then incubated overnight o n a microplate shaker at 800 rpm at 30 or 37 °C (see Table S1) and were visually evaluated the next day. The MIC is defined as the lowest concentration were no growth of the test organism was o bserved. A lower MIC thus corresponds to a higher antimicrobial activity of the test compound.
(§10) Table S1: MIC assay ex per i men t parameters test organism strain No. growth incubation positive control (reference) […]
Bacillus subtilis DSM10 MHB 1 30 oxytetr acyclin 1.0 mg/mL […]
(§11) Rhodotorula glutinis DSM10134 MYC 3 30 nyst ati n 1.0 mg/mL
(§12) 1 MHB: Müller-Hinton Broth (SN X927.1, Ca r l Roth GmbH, Karlsruhe, Germany) 2 7H9+ADC: Middlebrook 7H9 Broth Base + Middlebrook ADC Growth Supplement (SN M0678+M0553, Merck, Darmstadt, Germany)
(§13) 3 MYC: 1 % w/v, bacto peptone, 1% w/v yeast extract, 2 % w /v glycerol, pH 6.3 [S1] Helaly, S.E.; Ashrafi, S.; Teponno, R.B.; Bernecker, S.; Dababat, A.A.; Maier, W.; Stadler, M.
(§14) Nematicidal Cyclic Lipodepsipeptides and a Xanthocillin Derivative from a Phaeosphariaceous […]

Staphylococcus aureus = Staphylococcus aureus DSM346; overnight, 30 °C; reference oxytetracycline 0.1 mg/mL; read-out: Minimum Inhibitory Concentration (MIC)
Procedure: as §1, §2, §3, §4, §5, §6, §7, §8, §9, §10
Staphylococcus aureus DSM346 MHB 1 30 oxytetr acyclin 0.1 mg/mL […]
as §11, §12, §13, §14

Pseudomonas aeruginosa = Pseudomonas aeruginosa PA14; overnight, 37 °C; reference gentamicin 0.1 mg/mL; read-out: Minimum Inhibitory Concentration (MIC)
Procedure: as §1, §2, §3, §4, §5, §6, §7, §8, §9, §10
Pseudomonas a erugi nosa PA14 MHB 1 37 gent amici n 0.1 mg/mL […]
as §11, §12, §13, §14

Candida albicans = Candida albicans DSM1665; overnight, 30 °C; reference nystatin 1 mg/mL; read-out: Minimum Inhibitory Concentration (MIC)
Procedure: as §1, §2, §3, §4, §5, §6, §7, §8, §9, §10
Candida albicans DSM1665 MYC 3 30 nyst ati n 1.0 mg/mL […]
as §11, §12, §13, §14

Mucor hiemalis = Mucor hiemalis DSM2656; overnight, 30 °C; reference nystatin 1 mg/mL; read-out: Minimum Inhibitory Concentration (MIC)
Procedure: as §1, §2, §3, §4, §5, §6, §7, §8, §9, §10
Mucor hiemalis DSM2656 MYC 3 30 nyst ati n 1.0 mg/mL […]
as §11, §12, §13, §14

Pichia anomala = conditions: Hansenula anomala; Pichia anomala DSM6766; overnight, 30 °C; reference nystatin 1 mg/mL; read-out: Minimum Inhibitory Concentration (MIC)
Procedure: as §1, §2, §3, §4, §5, §6, §7, §8, §9, §10
Pichia anomala DSM6766 MYC 3 30 nyst ati n 1.0 mg/mL
as §11, §12, §13, §14

Micrococcus luteus = conditions: overnight, 30 °C, reference oxytetracycline 0.1 mg/mL; for MIC: Micrococcus luteus, DSM1790, Micrococcus luteus DSM1790, read-out: Minimum Inhibitory Concentration (MIC)
Procedure: as §1, §2, §3, §4, §5, §6, §7, §8, §9, §10
Micrococcus luteu s DSM1790 MHB 1 30 oxytetr acyclin 0.1 mg/mL […]
as §11, §12, §13, §14

Compound | MIC (Bacillus subtilis) [µg/mL] | MIC (Staphylococcus aureus) [µg/mL] | MIC (Pseudomonas aeruginosa) [µg/mL] | MIC (Candida albicans) [µg/mL] | MIC (Mucor hiemalis) [µg/mL] | MIC (Pichia anomala) [µg/mL] | MIC (Micrococcus luteus) [µg/mL] | Minimum Inhibitory Concentration (MIC) (Micrococcus luteus; Micrococcus luteus DSM1790) [µg/mL]
COc1cccc2c3c(ccc12)-c1ccc(O)c2c(OC)ccc-3c12 [Compound 3, viridistratin C] | > 66.7 | > 66.7 | > 66.7 | > 66.7 | > 66.7 | > 66.7 | – | –
COc1cccc2c3c(ccc12)-c1ccc(O)c2c(O)ccc-3c12 [Compound 2, viridistratin B] | 16.7 (≈ 53.1 µM) | 16.7 (≈ 53.1 µM) | > 66.7 | > 66.7 | 4.2 (≈ 13.4 µM) | 33.3 (≈ 106 µM) | 8.3 (≈ 26.4 µM) | –
Oc1cccc2c3c(ccc12)-c1ccc(O)c2c(O)ccc-3c12 [Compound 1, viridistratin A] | 33.3 (≈ 111 µM) | 66.7 (≈ 222 µM) | > 66.7 | > 66.7 | 66.7 (≈ 222 µM) | 66.7 (≈ 222 µM) | 16.7 (≈ 55.6 µM) | –
O=C1CCC(=O)c2c1c(O)cc1c2-c2ccc(O)c3c(O)ccc-1c23 [Compound 5, truncatone C] | 66.7 (≈ 201 µM) | > 66.7 | > 66.7 | > 66.7 | 66.7 (≈ 201 µM) | > 66.7 | 16.7 (≈ 50.3 µM) | –
O=C1C[C@H]2C(=C3CCC(=O)c4c(O)ccc2c43)c2cccc(O)c21 [Compound 4, truncatone A] | > 66.7 | > 66.7 | > 66.7 | > 66.7 | > 66.7 | > 66.7 | 16.7 (≈ 52.5 µM) | 33.3
